{"source": "ChEMBL document CHEMBL5212743", "about": "“Selectivity Literature for EUbOPEN Chemogenomics Library wave 3” (2023)", "key": {"[1]": {"biological_target": "T1, Sodium/nucleoside cotransporter 2 (Homo sapiens, UniProt O43868)", "T1 sequence (O43868 whole entry)": "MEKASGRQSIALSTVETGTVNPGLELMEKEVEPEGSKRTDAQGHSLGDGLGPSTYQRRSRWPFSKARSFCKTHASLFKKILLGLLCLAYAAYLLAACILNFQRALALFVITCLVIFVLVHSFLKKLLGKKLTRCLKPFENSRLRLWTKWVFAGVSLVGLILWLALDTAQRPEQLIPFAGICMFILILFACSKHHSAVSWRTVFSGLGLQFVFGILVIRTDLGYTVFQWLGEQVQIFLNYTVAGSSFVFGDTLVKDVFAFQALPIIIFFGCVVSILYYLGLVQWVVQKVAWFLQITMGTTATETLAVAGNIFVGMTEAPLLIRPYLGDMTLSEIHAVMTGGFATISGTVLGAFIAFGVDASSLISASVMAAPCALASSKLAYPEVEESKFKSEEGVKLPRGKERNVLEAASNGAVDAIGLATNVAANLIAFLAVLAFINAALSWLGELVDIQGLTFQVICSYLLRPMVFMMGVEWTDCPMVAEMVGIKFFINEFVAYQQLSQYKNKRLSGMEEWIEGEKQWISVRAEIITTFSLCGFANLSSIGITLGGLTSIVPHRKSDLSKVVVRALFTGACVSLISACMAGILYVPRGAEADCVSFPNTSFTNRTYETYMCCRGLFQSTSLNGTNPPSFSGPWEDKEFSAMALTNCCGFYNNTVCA", "test": "Selectivity interaction (Enzymatic assay (PanLabs Profiling)) EUB0000715a SLC28A2"}, "[2]": {"biological_target": "T2, Tyrosine-protein kinase JAK3 (Homo sapiens) (UniProt P52333)", "T2 sequence (whole entry)": "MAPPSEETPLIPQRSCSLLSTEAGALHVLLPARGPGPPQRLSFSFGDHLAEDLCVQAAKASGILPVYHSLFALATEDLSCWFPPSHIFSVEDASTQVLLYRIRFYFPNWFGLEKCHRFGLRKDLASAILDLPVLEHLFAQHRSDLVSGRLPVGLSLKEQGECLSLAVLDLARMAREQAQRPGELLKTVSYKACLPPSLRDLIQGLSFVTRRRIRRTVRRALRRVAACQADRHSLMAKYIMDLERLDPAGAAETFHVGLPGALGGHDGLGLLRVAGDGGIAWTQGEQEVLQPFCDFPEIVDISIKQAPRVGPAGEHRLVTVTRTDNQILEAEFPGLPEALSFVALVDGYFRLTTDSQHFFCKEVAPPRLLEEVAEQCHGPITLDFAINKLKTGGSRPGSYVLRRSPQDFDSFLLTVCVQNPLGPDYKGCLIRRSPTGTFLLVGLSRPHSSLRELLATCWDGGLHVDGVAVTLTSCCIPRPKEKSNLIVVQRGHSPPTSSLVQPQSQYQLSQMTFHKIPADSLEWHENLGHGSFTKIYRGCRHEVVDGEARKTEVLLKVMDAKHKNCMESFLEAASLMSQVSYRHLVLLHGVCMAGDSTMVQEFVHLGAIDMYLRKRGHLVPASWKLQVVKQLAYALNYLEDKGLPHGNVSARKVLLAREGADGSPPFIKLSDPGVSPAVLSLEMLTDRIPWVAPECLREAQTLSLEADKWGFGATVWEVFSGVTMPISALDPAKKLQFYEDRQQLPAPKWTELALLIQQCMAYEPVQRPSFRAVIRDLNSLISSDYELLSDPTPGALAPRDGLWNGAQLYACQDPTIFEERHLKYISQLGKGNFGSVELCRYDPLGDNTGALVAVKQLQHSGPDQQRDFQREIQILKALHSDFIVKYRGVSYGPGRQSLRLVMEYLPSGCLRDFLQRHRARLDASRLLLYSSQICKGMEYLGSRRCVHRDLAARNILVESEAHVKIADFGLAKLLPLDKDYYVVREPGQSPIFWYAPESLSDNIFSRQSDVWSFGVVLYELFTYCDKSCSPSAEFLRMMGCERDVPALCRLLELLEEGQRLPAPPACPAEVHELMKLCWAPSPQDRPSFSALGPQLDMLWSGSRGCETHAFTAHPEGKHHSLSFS", "test": "Selectivity interaction (KinomeScan (DiscoverX)) EUB0000715a JAK3", "conditions": "at 100 nM"}, "[3]": {"biological_target": "Epidermal growth factor receptor (Homo sapiens, UniProt P00533)", "sequence (P00533 whole entry)": "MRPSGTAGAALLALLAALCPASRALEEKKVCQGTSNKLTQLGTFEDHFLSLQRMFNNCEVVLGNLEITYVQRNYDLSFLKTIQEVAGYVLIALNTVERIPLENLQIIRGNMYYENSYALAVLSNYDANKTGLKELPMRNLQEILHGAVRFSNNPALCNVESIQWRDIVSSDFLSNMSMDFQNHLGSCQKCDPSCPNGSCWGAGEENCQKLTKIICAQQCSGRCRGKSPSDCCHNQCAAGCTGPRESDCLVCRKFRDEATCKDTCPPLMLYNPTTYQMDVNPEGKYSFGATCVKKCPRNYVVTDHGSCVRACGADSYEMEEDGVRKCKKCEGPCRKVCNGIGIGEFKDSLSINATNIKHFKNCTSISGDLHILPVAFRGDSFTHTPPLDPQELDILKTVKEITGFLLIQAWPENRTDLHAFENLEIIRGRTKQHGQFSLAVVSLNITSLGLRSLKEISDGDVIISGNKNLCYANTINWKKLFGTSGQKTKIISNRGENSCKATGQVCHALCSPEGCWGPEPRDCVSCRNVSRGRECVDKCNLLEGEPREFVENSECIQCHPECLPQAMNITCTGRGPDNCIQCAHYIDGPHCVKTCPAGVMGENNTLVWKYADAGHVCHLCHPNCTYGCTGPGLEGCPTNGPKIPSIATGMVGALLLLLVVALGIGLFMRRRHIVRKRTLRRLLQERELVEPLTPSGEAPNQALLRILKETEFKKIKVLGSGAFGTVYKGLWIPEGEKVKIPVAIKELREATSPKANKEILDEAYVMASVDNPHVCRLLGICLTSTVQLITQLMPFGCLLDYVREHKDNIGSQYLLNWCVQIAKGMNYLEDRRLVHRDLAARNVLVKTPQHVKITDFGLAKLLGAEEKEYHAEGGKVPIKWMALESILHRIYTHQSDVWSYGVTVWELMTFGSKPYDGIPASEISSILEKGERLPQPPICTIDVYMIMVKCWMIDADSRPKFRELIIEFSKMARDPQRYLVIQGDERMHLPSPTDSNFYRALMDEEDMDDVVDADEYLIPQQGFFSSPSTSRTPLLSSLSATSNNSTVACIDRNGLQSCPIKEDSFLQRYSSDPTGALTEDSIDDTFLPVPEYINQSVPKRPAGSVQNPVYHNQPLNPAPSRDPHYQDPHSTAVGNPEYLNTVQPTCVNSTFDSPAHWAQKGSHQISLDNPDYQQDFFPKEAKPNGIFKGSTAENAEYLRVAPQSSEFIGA", "test": "Selectivity interaction (KinomeScan (DiscoverX)) EUB0000715a EGFR", "conditions": "at 100 nM"}, "[4]": {"biological_target": "T3, Mitogen-activated protein kinase kinase kinase 13 (Homo sapiens) (UniProt O43283)", "T3 sequence (whole entry)": "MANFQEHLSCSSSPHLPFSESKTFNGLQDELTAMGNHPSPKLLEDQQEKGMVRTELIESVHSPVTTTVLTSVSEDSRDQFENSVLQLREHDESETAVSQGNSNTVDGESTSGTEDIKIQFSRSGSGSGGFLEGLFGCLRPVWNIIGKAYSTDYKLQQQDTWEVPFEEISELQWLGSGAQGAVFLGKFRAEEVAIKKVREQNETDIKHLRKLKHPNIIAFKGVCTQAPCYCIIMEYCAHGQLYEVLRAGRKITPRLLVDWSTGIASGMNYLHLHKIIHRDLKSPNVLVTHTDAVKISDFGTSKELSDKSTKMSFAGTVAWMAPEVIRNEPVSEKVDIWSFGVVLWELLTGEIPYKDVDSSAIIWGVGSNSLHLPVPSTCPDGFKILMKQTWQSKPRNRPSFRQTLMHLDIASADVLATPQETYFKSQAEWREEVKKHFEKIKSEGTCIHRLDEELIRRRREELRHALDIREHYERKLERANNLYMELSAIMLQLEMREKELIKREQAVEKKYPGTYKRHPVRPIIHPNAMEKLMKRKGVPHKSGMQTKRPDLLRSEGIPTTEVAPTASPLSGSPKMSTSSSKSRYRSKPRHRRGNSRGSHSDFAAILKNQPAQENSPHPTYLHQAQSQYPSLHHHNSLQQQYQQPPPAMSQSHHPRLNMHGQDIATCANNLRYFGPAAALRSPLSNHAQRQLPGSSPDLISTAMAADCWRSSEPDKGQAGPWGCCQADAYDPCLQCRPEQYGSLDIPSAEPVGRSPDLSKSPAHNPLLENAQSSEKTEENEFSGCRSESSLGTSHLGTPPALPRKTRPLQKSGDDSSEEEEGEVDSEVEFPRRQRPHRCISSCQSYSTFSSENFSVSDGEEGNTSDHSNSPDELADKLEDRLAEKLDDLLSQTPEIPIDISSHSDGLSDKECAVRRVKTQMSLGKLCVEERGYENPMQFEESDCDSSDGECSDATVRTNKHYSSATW", "test": "Selectivity interaction (KinomeScan (DiscoverX)) EUB0000715a MAP3K13", "conditions": "at 100 nM"}}, "data": [{"smiles": "C[C@@H]1CN(c2cc(-c3n[nH]c4ccc(OC5(C)CC5)cc34)ncn2)C[C@H](C)O1", "note": "[MLi-2]", "values": [{"measurement": "IC50", "setting": "[1]", "value": 9.7, "unit": "µM"}, {"measurement": "% of control", "setting": "[2]", "value": 0, "unit": "%"}, {"measurement": "% of control", "setting": "[3]", "value": 43, "unit": "%"}, {"measurement": "% of control", "setting": "[4]", "value": 0, "unit": "%"}]}]}
